The record followed here is paper PMC10254233, “Synthesis and In Vitro Biological Evaluation of p-Carborane-Based Di-tert-butylphenol Analogs” (Molecules, 2023).

The target in one assay is T1, human recombinant COX-2 (Homo sapiens, UniProt P35354).
T1 construct: purchased Cayman Chemical Company
T1 sequence (P35354 18-604): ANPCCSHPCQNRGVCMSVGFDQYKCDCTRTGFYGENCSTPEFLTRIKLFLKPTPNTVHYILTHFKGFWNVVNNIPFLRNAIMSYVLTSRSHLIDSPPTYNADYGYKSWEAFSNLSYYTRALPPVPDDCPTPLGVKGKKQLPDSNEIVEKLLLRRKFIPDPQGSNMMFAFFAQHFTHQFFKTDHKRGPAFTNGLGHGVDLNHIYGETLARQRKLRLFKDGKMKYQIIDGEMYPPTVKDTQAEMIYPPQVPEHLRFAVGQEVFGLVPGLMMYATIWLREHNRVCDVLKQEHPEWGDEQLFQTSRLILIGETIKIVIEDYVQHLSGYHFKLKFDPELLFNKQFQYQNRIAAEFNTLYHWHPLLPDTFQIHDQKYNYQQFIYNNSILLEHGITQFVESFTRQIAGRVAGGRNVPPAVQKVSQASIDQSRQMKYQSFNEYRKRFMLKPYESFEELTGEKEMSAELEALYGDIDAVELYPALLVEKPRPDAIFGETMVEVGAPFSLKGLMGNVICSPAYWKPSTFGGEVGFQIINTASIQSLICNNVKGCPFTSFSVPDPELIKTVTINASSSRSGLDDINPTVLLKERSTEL
Nature of the assay: COX Fluorescent Inhibitor Screening Assay, COX-2. The format is biochemical. The settings on record: in duplicate. The procedure:
COX inhibition activity against ovine COX-1 and human COX-2 was determined using the fluorescence-based COX assay COX Fluorescent Inhibitor Screening Assay Kit (Cayman Chemical Company, Ann Arbor, MI, USA) according to the manufacturer’s instructions as previously reported by us. All compounds were screened at a concentration of 100 µM in duplicate.

The next assay has as its system A375 melanoma. Description: Cell viability, MTT assay, A375. The assay is classed as cell-based, human. The settings on record: 72 h, mean ± SD. The method, then: (§1) Five human cell lines (A375 melanoma, A549 lung adenocarcinoma, HCT116 and HT29 colorectal carcinoma, MDA-MB-231 triple-negative breast adenocarcinoma) were used to study the antitumor effects of the di-tert-butylphenols and their respective carborane analogs. All selected cell lines were derived from inflammation-associated tumors.
(§2) After the incubation period, the supernatant was discarded from the wells, and the cells were washed two times with 200 µL of PBS. Next, MTT solution at a final concentration of 0.5 mg/mL was added and incubated at 37 °C until purple formazan crystals were formed (30 min to one hour). After incubation, the dye was discarded. In order to dissolve the formed formazan crystals DMSO was added, and the absorbance was measured at λmax = 540 nm, with the reference/background wavelength of 670 nm. All results are expressed as a percentage of the control value which was arbitrary set to 100%. After 72 h treatment, cells were washed with 200 µL of PBS and fixed with 4% paraformaldehyde (PFA) for 15 min at room temperature (RT). Next, cells were stained with 1% CV solution. After 20 min, cells were washed in tap water and dried on air. Dye was dissolved in 33% acetic acid and the absorbance was measured at λmax = 540 nm, with the reference/background wavelength of 670 nm. Results were expressed as a percentage of the control value which was arbitrary set to 100%.
(§3) 1. General methods, materials, and procedures
(§4) 1.1.1. Reagents and cells
(§5) Reagents and cells were obtained from following manufacturers: Capricorn Scientific GmbH (Hessen, Germany) – Culture medium RPMI-1640, Dulbecco's Modified Eagle Medium (DMEM), and fetal bovine serum (FBS). Serva (Heidelberg, Germany) – Paraformaldehyde (PFA). Sigma (St. Louis, MO, USA) – Ethylenediaminetetraacetic acid (EDTA), Dimethyl sulfoxide (DMSO), chloroquine, CV, Triton X-100, RNase, PI, PBS, 3-MA, CFSE, and fluorescent mounting medium. AppliChem (MO, USA) –MTT. Thermo Fisher Scientific (Waltham, MA, USA) – DHR. R&D Systems (Minneapolis, MN, USA) – ApoStat. BD (Pharmingen, San Diego, SAD) – Annexin V-FITC (AnnV). Biological Industries (Cromwell, CT, USA) – Penicillin Streptomycin solution. American Type Culture Collection (ATCC, Manassas, Virginia, USA) – Human lung carcinoma (A549), human breast adenocarcinoma (MDA-MB-231), human colorectal ade-nocarcinoma (HT-29), human colorectal carcinoma (HCT116) and human melanoma (A375).
(§6) Cell lines (A375, HCT116, HT-29 and MDA-MB-231) were cultivated in HEPES-buffered RPMI-1640 medium while A549 cell line was cultivated in Dulbecco's Modified Eagle Medium (DMEM) which were previously supplemented with 10% heat-inactivated FBS, penicillin (100 units/mL), and streptomycin (100 μg/mL). All cells were kept at 37 °C in a humidified atmosphere with 5% CO2. For viability determi-nation cells were seeded at following densities in 96-well plates: 4 x 10^3 cells/well (A375, HT-29 and MDA-MB-231), 5 x 10^3 cells/well (HCT116), and 3 x 10^3 cells/well (A549). […]
(§7) Afterwards, cells were washed with phosphate-buffered saline (PBS) and stained with AnnV (15 μg/mL) and PI (15 μg/mL). […]
(§8) PBS and analyzed using flow cytometry. HCT116 cells were stained with 1 µg/mL of AO solution for 15 min at 37 °C to detect the presence of autophagic cell death. Afterwards cells were washed with PBS, resuspended and analyzed by flow cytometry (CyFlow® Space Partec using the PartecFloMax® software

The subject of assay [1] is HCT116 colorectal carcinoma. Description: Cell viability, MTT assay, HCT116. The assay is classed as cell-based, human. The following applies: 72 h, mean ± SD. The method, then: as §1, §2, §3, §4, §5, §6, §7, §8
On the technique in general: Formazan colour is commonly taken as a measure of viable cells.

In assay [2] the test system is MDA-MB-231 triple-negative breast adenocarcinoma. Nature of the assay: Cell viability, MTT assay, MDA-MB-231. The format is cell-based, human. The settings on record: 72 h, mean ± SD. The procedure: as §1, §2, §3, §4, §5, §6
Afterwards, cells were washed with phosphate-buffered saline (PBS) and stained with AnnV (15 μg/mL) and PI (15 μg/mL). After 15 min incubation at room temperature (RT) protected from light the cells were resuspended in AnnV-binding buffer and analysed using flow cytom-etry. HCT116 cells were incubated with pan-caspase inhibitor Apostat for 30 min at 37 °C to determine whether detected apoptosis was mediated by caspase activation. Afterwards, cells were washed with PBS and analyzed using flow cytometry. HCT116 cells were stained with 1 µg/mL of AO solution for 15 min at 37 °C to detect the presence of autophagic cell death. Afterwards cells were washed with PBS, resuspended and analyzed by flow cytometry (CyFlow® Space Partec using the PartecFloMax® software

As to “(3E)-1-Hydroxy-12-(methylene-[2′-ethylisothiazolidine-1′,1′-dioxide])-1,12-dicarba-closo-dodecaborane(12) [Compound S-2474-Cb]”, the “% Inhibition at 100 µM COX-2” value on human recombinant COX-2 is on record as “n.i. (n.i. = no inhibition (%inhibition below 5%))”. For the same substance, the IC50 was 106 ± 6.3 µM in the assay with A375 melanoma, 108 ± 11.5 µM in assay [1] and more than 200 µM in assay [2].

Take “(3E)-1-Hydroxy-12-(methylene-[1′-methoxypyrrolidine-2′-one])-1,12-dicarba-closo-dodecaborane(12) [Compound E-5110-Cb]”: the “% Inhibition at 100 µM COX-2” value on human recombinant COX-2 is recorded as “n.i. (n.i. = no inhibition (%inhibition below 5%))”. Besides, the IC50 in the assay on A375 melanoma was found to be 69.3 ± 1.7 µM; in assay [1], 144 ± 10.5 µM.

“1-Hydroxy-12-(thiophen-2′-carbonyl)-1,12-dicarba-closo-dodecaborane(12) [Compound R-830-Cb]”: the “% Inhibition at 100 µM COX-2” value at human recombinant COX-2 worked out at 6%. Also, the IC50 in the assay on A375 melanoma was 35.9 ± 0.8 µM; in assay [1], 40.9 ± 3.1 µM; in assay [2], 46.5 ± 0.1 µM.

“(3E)-1-Hydroxy-12-(methylene-[dihydrofurane-2′(3H)-one])-1,12-dicarba-closo-dodecaborane(12) [KME-4-Cb]”: at human recombinant COX-2, the “% Inhibition at 100 µM COX-2” value is reported as “n.i. (n.i. = no inhibition (%inhibition below 5%))”. The IC50 is 83.3 ± 2.3 µM in the assay with A375 melanoma, 88.5 ± 4.3 µM in assay [1] and 120 ± 3.9 µM in assay [2].

One may read the % Inhibition as the change of the read-out against control, counted positive when it falls. One may read the IC50 as the concentration at which inhibition is half-maximal. A higher IC50 goes with weaker potency.
